Results published in BindingDB's records for doi:10.1021/jm0305523 (Merck Research Laboratories, 2004).

Target: T1, Caspase-3 (Homo sapiens, UniProt P42574)
T1 sequence (P42574 whole entry): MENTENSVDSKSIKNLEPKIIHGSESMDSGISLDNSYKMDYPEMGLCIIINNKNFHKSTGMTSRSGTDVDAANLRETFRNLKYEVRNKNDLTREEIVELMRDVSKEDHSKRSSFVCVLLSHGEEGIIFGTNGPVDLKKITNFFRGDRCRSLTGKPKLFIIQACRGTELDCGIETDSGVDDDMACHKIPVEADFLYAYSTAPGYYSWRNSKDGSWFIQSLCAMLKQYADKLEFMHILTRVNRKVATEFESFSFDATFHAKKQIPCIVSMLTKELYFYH
Test: Caspase Inhibition Assay
Conditions: pH 7; 37 °C

SMILES: CC(=O)N[C@@H](CC(=O)O)C(=O)N[C@H]1CCc2cccc3c2N(C1=O)[C@H](C(=O)N[C@@H](CC(=O)O)C(=O)CSCc1ccccc1)C3 [(3S)-5-(benzylsulfanyl)-3-{[(2S,11S)-11-[(3S)-3-acetamido-3-formamidopropanoic acid]-12-oxo-1-azatricyclo[6.4.1.0^{4,13}]trideca-4(13),5,7-trien-2-yl]formamido}-4-oxopentanoic acid]
- IC50: 3 nM
